Experimental data published in US20240124460A1, “METHODS AND COMPOSITIONS FOR TARGETED PROTEIN DEGRADATION” (Ranok Therapeutics (Hangzhou) Co. Ltd., priority 2020, published 2024).

Experiments:
[1] = system: MV-4-11 human acute myeloid leukemia; assay: MV-4-11 CCK-8 proliferation assay; type: cell-based; settings: Homo sapiens, MV4-11; MV-4-11 cells, 72 hr
Summary of the method: (§1)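 CCK-8 absorbance read-out, with inhibition expressed against DMSO-treated cells after subtracting a cell-free DMSO medium blank. Compounds tested over a 3-fold dilution series spanning 20 μM to 1.02 nM; lines grown essentially as ATCC recommends.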

[2] = system: U-87 MG human glioblastoma; assay: U87 MG CCK-8 proliferation assay; type: cell-based; settings: Homo sapiens, U-87 MG, 72 h, U-87 MG cells, read-out: U87MG CCK-8
Summary of the method: as §1

[3] = molecular target: T1, HSP90α protein (Homo sapiens, UniProt P07900); assay: HSP90α-binding FP (BODIPY) assay; settings: FP competition with BODIPY-labeled RNK04010
T1 construct: purchased BPS Bioscience #50298
Description: Binding of test compounds to HSP90α protein was measured by fluorescent polarization (FP) using the HSP90α (N-terminal) Assay Kit (BPS Bioscience, #50298), following the manufacturer's instructions, except as noted. Fluorescently labeled HSP90-binding compounds, either the provided FITC-geldanamycin (5 nM final concentration) or RNK04010, a triazolone-based HSP90 binding small molecule labeled with BODIPY through a piperazine-phenyl linker (5 nM final concentration) were employed. A 2.5-fold serial dilution of each test compound ranging from 20 μM to 5.2 nM was assayed for binding to HSP90α. After the final step of adding HSP90α protein to each assay well, plates were mixed by brief shaking, incubated at 25° C. for 120 min for FITC-geldanamycin or 300 min for RNK04010, and fluorescence was measured using a PerkinElmer EnVision Plate Reader.

SMILES | EC50 [1] | EC50 [2] | IC50 [3]
CCOc1cc(N2CCC(C(=O)N3CCN(c4ccc(-n5c(O)nnc5-c5cc(C(C)C)c(O)cc5O)cc4)CC3)CC2)ccc1Nc1ncc2c(n1)N(C)c1ccccc1C(=O)N2C [Compound 023, 2-((4-(4-(4-(4-(3-(2,4-dihydroxy-5-isopropylphenyl)-5-hydroxy-4H-1,2,4-triazol-4-yl)phenyl)piperazine-1-carbonyl)piperidin-1-yl)-2-ethoxyphenyl)amino)-5,11-dimethyl-5,11-dihydro-6H-benzo[e]pyrimido[5,4-b][1,4]diazepin-6-one] | < 100 nM | 100 to 1000 nM | 100 to 1000 nM
CCOc1cc(N2CCC(C(=O)N[C@H](C)c3ccc(CN4CCC(Cc5ccc(-n6c(O)nnc6-c6cc(C(C)C)c(O)cc6O)cc5)CC4)cc3)CC2)ccc1Nc1ncc2c(n1)N(C)c1ccccc1C(=O)N2C [Compound 045, (R)—N-(1-(4-((4-(4-(3-(2,4-dihydroxy-5-isopropylphenyl)-5-hydroxy-4H-1,2,4-triazol-4-yl)benzyl)piperidin-1-yl)methyl)phenyl)ethyl)-1-(4-((5,11-dimethyl-6-oxo-6,11-dihydro-5H-benzo[e]pyrimido[5,4-b][1,4]diazepin-2-yl)amino)-3-ethoxyphenyl)piperidine-4-carboxamide] | < 100 nM | 100 to 1000 nM | 100 to 1000 nM
CCOc1cc(N2CCC(C(=O)N3CCN(Cc4ccc(-n5c(O)nnc5-c5cc(C(C)C)c(O)cc5O)cc4C(F)(F)F)CC3)CC2)ccc1Nc1ncc2c(n1)N(C)c1ccccc1C(=O)N2C [Compound 046, 2-((4-(4-(4-(4-(3-(2,4-dihydroxy-5-isopropylphenyl)-5-hydroxy-4H-1,2,4-triazol-4-yl)-2-(trifluoromethyl)benzyl)piperazine-1-carbonyl)piperidin-1-yl)-2-ethoxyphenyl)amino)-5,11-dimethyl-5,11-dihydro-6H-benzo[e]pyrimido[5,4-b][1,4]diazepin-6-one] | < 100 nM | 100 to 1000 nM | 100 to 1000 nM
CCOc1cc(N2CCC(C(=O)N3CCN(Cc4ccc(-n5c(O)nnc5-c5cc(C(C)C)c(O)cc5O)cc4)[C@H](C)C3)CC2)ccc1Nc1ncc2c(n1)N(C)c1ccccc1C(=O)N2C [Compound 051, (R)-2-((4-(4-(4-(4-(3-(2,4-dihydroxy-5-isopropylphenyl)-5-hydroxy-4H-1,2,4-triazol-4-yl)benzyl)-3-methylpiperazine-1-carbonyl)piperidin-1-yl)-2-ethoxyphenyl)amino)-5,11-dimethyl-5,11-dihydro-6H-benzo[e]pyrimido[5,4-b][1,4]diazepin-6-one] | < 100 nM | < 100 nM | 100 to 1000 nM

The next lines start with the values.

EC50 [1] | EC50 [2] | IC50 [3] | SMILES
< 100 nM | 100 to 1000 nM | 100 to 1000 nM | CCOc1cc(N2CCC(C(=O)N3CCC(CN4CCN(Cc5ccc(-n6c(C(N)=O)nnc6-c6cc(CC)c(O)cc6O)cc5)CC4)CC3)CC2)ccc1Nc1ncc2c(n1)N(C)c1ccccc1C(=O)N2C [Compound 034, 4-(4-((4-((1-(1-(4-((5,11-dimethyl-6-oxo-6,11-dihydro-5H-benzo[e]pyrimido[5,4-b][1,4]diazepin-2-yl)amino)-3-ethoxyphenyl)piperidine-4-carbonyl)piperidin-4-yl)methyl)piperazin-1-yl)methyl)phenyl)-5-(5-ethyl-2,4-dihydroxyphenyl)-4H-1,2,4-triazole-3-carboxamide]
< 100 nM | < 100 nM | < 100 nM | CCOc1cc(N2CCC(C(=O)NCC3CCN(C(=O)C4CCN(Cc5ccc(-n6c(O)nnc6-c6cc(C(C)C)c(O)cc6O)cc5)CC4)CC3)CC2)ccc1Nc1ncc2c(n1)N(C)c1ccccc1C(=O)N2C [Compound 041, N-((1-(1-(4-(3-(2,4-dihydroxy-5-isopropylphenyl)-5-hydroxy-4H-1,2,4-triazol-4-yl)benzyl)piperidine-4-carbonyl)piperidin-4-yl)methyl)-1-(4-((5,11-dimethyl-6-oxo-6,11-dihydro-5H-benzo[e]pyrimido[5,4-b][1,4]diazepin-2-yl)amino)-3-ethoxyphenyl)piperidine-4-carboxamide]
< 100 nM | < 100 nM | < 100 nM | CCOc1cc(N2CCC(C(=O)N3CCC(CN4CCC(Cc5ccc(-n6c(O)nnc6-c6cc(C(C)C)c(O)cc6O)cc5)CC4)CC3)CC2)ccc1Nc1ncc2c(n1)N(C)c1ccccc1C(=O)N2C [Compound 044, 2-((4-(4-(4-((4-(4-(3-(2,4-dihydroxy-5-isopropylphenyl)-5-hydroxy-4H-1,2,4-triazol-4-yl)benzyl)piperidin-1-yl)methyl)piperidine-1-carbonyl)piperidin-1-yl)-2-ethoxyphenyl)amino)-5,11-dimethyl-5,11-dihydro-6H-benzo[e]pyrimido[5,4-b][1,4]diazepin-6-one]
< 100 nM | 100 to 1000 nM | 100 to 1000 nM | CCOc1cc(N2CCC(C(=O)N3CCN(Cc4ccc(-n5c(O)nnc5-c5cc(C)c(O)cc5O)cc4)CC3)CC2)ccc1Nc1ncc2c(n1)N(C)c1ccccc1C(=O)N2C [Compound 048, 2-((4-(4-(4-(4-(3-(2,4-dihydroxy-5-methylphenyl)-5-hydroxy-4H-1,2,4-triazol-4-yl)benzyl)piperazine-1-carbonyl)piperidin-1-yl)-2-ethoxyphenyl)amino)-5,11-dimethyl-5,11-dihydro-6H-benzo[e]pyrimido[5,4-b][1,4]diazepin-6-one]
< 100 nM | 100 to 1000 nM | 100 to 1000 nM | CCOc1cc(N2CCC(C(=O)N3CCN(Cc4ccc(-n5c(O)nnc5-c5cc(C(C)C)c(O)cc5O)cc4)[C@@H](C)C3)CC2)ccc1Nc1ncc2c(n1)N(C)c1ccccc1C(=O)N2C [Compound 055, (S)-2-((4-(4-(4-(4-(3-(2,4-dihydroxy-5-isopropylphenyl)-5-hydroxy-4H-1,2,4-triazol-4-yl)benzyl)-3-methylpiperazine-1-carbonyl)piperidin-1-yl)-2-ethoxyphenyl)amino)-5,11-dimethyl-5,11-dihydro-6H-benzo[e]pyrimido[5,4-b][1,4]diazepin-6-one]
< 100 nM | < 100 nM | < 100 nM | CCOc1cc(N2CCC(C(=O)N3CCC(N4CCN(Cc5ccc(-n6c(O)nnc6-c6cc(C(C)C)c(O)cc6O)cc5F)CC4)CC3)CC2)ccc1Nc1ncc2c(n1)N(S(C)(=O)=O)c1ccccc1C(=O)N2C [Compound 059, 2-((4-(4-(4-(4-(4-(3-(2,4-dihydroxy-5-isopropylphenyl)-5-hydroxy-4H-1,2,4-triazol-4-yl)-2-fluorobenzyl)piperazin-1-yl)piperidine-1-carbonyl)piperidin-1-yl)-2-ethoxyphenyl)amino)-5-methyl-11-(methylsulfonyl)-5,11-dihydro-6H-benzo[e]pyrimido[5,4-b][1,4]diazepin-6-one]
< 100 nM | < 100 nM | < 100 nM | CCOc1cc(N2CCC(C(=O)N3CCC(CN4CCN(Cc5ccc(-n6c(C(N)=O)nnc6-c6cc(CC)c(O)cc6O)cc5)CC4)CC3)CC2)ccc1Nc1ncc2c(n1)N(S(C)(=O)=O)c1ccccc1C(=O)N2C [Compound 063, 4-(4-((4-((1-(1-(3-ethoxy-4-((5-methyl-11-(methylsulfonyl)-6-oxo-6,11-dihydro-5H-benzo[e]pyrimido[5,4-b][1,4]diazepin-2-yl)amino)phenyl)piperidine-4-carbonyl)piperidin-4-yl)methyl)piperazin-1-yl)methyl)phenyl)-5-(5-ethyl-2,4-dihydroxyphenyl)-4H-1,2,4-triazole-3-carboxamide]
